{
  "source": "patent US20070072938A1",
  "about": "“DRONABINOL TREATMENT OF DELAYED CHEMOTHERAPY-INDUCED NAUSEA AND VOMITING” (priority 2005, published 2007)",
  "key": {"[1]": {"test_system": "patients receiving moderately to highly emetogenic chemotherapy", "test": "ECOG (wellness) and McCorkle Symptom Distress Scale (QoL) assessment", "assay_type": "in vivo, human", "description": "The secondary efficacy analysis included patients who took rescue medication. However, analyses were conducted only on data collected before the use of any rescue medication. The secondary efficacy assessments were complete response, presence or absence of nausea, episodes of vomiting and/or retching, duration of nausea and vomiting and/or retching, intensity of nausea measured by VAS, ECOG (wellness), and QoL. Complete response for vomiting/retching was defined as no vomiting/retching, intensity of nausea of ≦30 mm on the VAS, and no use of rescue therapy. The presence or absence of nausea, episodes of vomiting and/or retching, and duration of nausea and vomiting and/or retching were assessed from daily patient telephone diary entries completed each morning to report the previous day. The patient was prompted through the Interactive Voice Response System to use the standard VAS to assess nausea intensity. The ECOG (wellness) assessment was clinician administered at screening and again on Day 6, Day 7, or Day 8 (or early termination). The possible range of the ECOG assessment was 0 to 4, where 0 was normal activity with no limitations and 4 was very sick, rarely out of bed.\nThe McCorkle Symptom Distress Scale (QoL assessment) evaluation was conducted on Day 1 (postchemotherapy) and again on Day 6, Day 7, or Day 8 (or early termination). […]"}, "[2]": {"test_system": "patients receiving moderately to highly emetogenic chemotherapy", "test": "Safety and tolerability: treatment-emergent adverse events (safety population)", "description": "(§1) A randomized, double-blind, placebo-controlled, parallel-group study evaluating the antiemetic efficacy and tolerability of oral dronabinol alone, dronabinol in combination with ondansetron, ondansetron alone, and placebo in patients receiving moderate to high emetogenic chemotherapy was conducted. All patients received dexamethasone 20 mg and ondansetron 16 mg intravenously prechemotherapy. […] On Day 2, placebo or fixed doses of 10 mg dronabinol, 16 mg ondansetron, or dronabinol plus ondansetron were administered. On Days 3-5, patients received placebo, flexible doses of 10-20 mg dronabinol, 8-16 mg ondansetron, or dronabinol plus ondansetron. Rescue antiemetics were permitted after using the maximum dose of medication. The primary efficacy variable was total response (“TR”) to study medication (TR=nausea intensity<5 mm on a 100-mm visual analog scale, no vomiting/retching, no rescue antiemetic). Secondary efficacy parameters included nausea status and intensity, as well as episodes of vomiting/retching. […] TR and presence/absence of nausea were evaluated using the Fisher's Exact Test. Tolerability was assessed by physical examination and adverse events.\nAEs and concomitant medications were also assessed."}, "[3]": {"test_system": "patients receiving moderately to highly emetogenic chemotherapy", "test": "Other analyses: rescue antiemetic use and compliance with study medication", "assay_type": "in vivo, human", "description": "(§2) A kit of open-label antiemetics (metoclopramide 10 mg, prochlorperazine 5 mg, and prochlorperazine 25-mg suppository) was provided to the study participants for use on Days 1 through 8 as rescue medications to treat intolerable nausea and vomiting and/or retching after using the maximum dose of study medication at any dosing interval. Patients recorded the use of rescue medication and returned the unused portion of the kit.\nFor the primary efficacy parameter, a logistic regression model was used for the primary analysis and a Cochran-Mantel-Haenszel (“CMH”) test stratified by pooled center was performed as a supportive analysis. Continuous secondary efficacy parameters were analyzed for all pairwise comparisons using a 2-way analysis of variance (“ANOVA”) with treatment and pooled center as fixed factors. For data that was not normally distributed, data were ranked, and an ANOVA was performed on the ranked scores. Categorical secondary efficacy parameters were analyzed for all pairwise comparisons using the CMH test stratified by pooled center. No adjustment for multiple comparisons was performed for the secondary efficacy parameters. No interactions were examined for the secondary efficacy parameters. Compliance with study medication was defined as taking all doses of supplied medication and was measured throughout the trial."}, "[4]": {"test_system": "patients receiving moderately to highly emetogenic chemotherapy", "test": "Randomized, double-blind, placebo-controlled study: antiemetic efficacy in delayed CINV (Days 2-5)", "assay_type": "in vivo, human", "description": "as §1\nAll efficacy analyses were based on the ITT population.\nThis was a randomized, double-blind, placebo-controlled, parallel-group, 5-day study to evaluate the antiemetic efficacy and safety of oral dronabinol (sole under the trade name, Marinol®) alone, and in combination with ondansetron (sole under the trade name, Zofran®), versus ondansetron alone in patients receiving moderately to highly emetogenic chemotherapy. The investigator obtained written approval from the Institutional Review Board, and the study was conducted in accordance with the Declaration of Helsinki.\nPatients who entered the study were to undergo cancer chemotherapy with moderately to highly emetogenic agents on Day 1 when they were randomized into 1 of 4 treatment groups: dronabinol alone (Group Dronabinol), ondansetron alone (Group Ondansetron), combination therapy with dronabinol and ondansetron (Group Dronabinol/Ondansetron), or placebo (Group Placebo). All patients received a standard prechemotherapy regimen of dexamethasone (20 mg) and ondansetron (16 mg). […] Placebo patients received matching placebo prechemotherapy and postchemotherapy on Day 1.\nas §2\nEach morning, patients recorded the number of vomiting and/or retching episodes in the previous day. In addition, the patient recorded the daily presence or absence of nausea and its duration.\nThe primary efficacy measure was the incidence of total response to treatment following administration of moderately to highly emetogenic chemotherapeutic agents. Total response was defined as no vomiting and/or retching, intensity of nausea <5 mm on a 100-mm Visual Analog Scale (VAS scale 0-100 mm; 0 mm=no nausea; 100 mm=intractable nausea), and no use of rescue medication.\nThe secondary efficacy analysis included patients who took rescue medication. However, analyses were conducted only on data collected before the use of any rescue medication. The secondary efficacy assessments were complete response, presence or absence of nausea, episodes of vomiting and/or retching, duration of nausea and vomiting and/or retching, intensity of nausea measured by VAS, ECOG (wellness), and QoL. Complete response for vomiting/retching was defined as no vomiting/retching, intensity of nausea of ≦30 mm on the VAS, and no use of rescue therapy."}},
  "note": "Marks after values point to notes of the source that are not given here.",
  "data": [
    {"compound": "CCCCCc1cc(O)c2c(c1)OC(C)(C)[C@@H]1CCC(C)=C[C@@H]21", "note": "[Dronabinol, delta-9-tetrahydrocannabinol]", "values": [
      {"measurement": "McCorkle Symptom Distress Scale (QoL), mean change from baseline", "setting": "[1]; Day 1 versus Day 6, 7 or 8, lower values = less distress", "result": "−2.0±4.2"},
      {"measurement": "ECOG (wellness) change after treatment", "setting": "[1]; result in words", "result": "Shifts in ECOG from 1 to 0 (improvement)"},
      {"measurement": "Adverse event: Asthenia", "setting": "[2]; Safety Population", "result": "2 (12) n (%)"},
      {"measurement": "Adverse event: Chest pain", "setting": "[2]; Safety Population", "result": "1 (6) n (%)"},
      {"measurement": "Adverse event: Constipation", "setting": "[2]; Safety Population", "result": "1 (6) n (%)"},
      {"measurement": "Adverse event: Diarrhea", "setting": "[2]; Safety Population", "result": "4 (24) n (%)"},
      {"measurement": "Adverse event: Dizziness", "setting": "[2]; Safety Population", "result": "1 (6) n (%)"},
      {"measurement": "Adverse event: Fatigue", "setting": "[2]; Safety Population", "result": "2 (12) n (%)"},
      {"measurement": "Adverse event: Headache", "setting": "[2]; Safety Population", "result": "0 n (%)"},
      {"measurement": "Adverse event: Hyperglycemia", "setting": "[2]; Safety Population", "result": "0 n (%)"},
      {"measurement": "Adverse event: Insomnia", "setting": "[2]; Safety Population", "result": "0 n (%)"},
      {"measurement": "Patients who permanently discontinued study medication because of a TEAE", "setting": "[2]; Safety Population", "result": "1 (6) n (%)"},
      {"measurement": "Patients with at least 1 SAE", "setting": "[2]; Safety Population", "result": "2 (12) n (%)"},
      {"measurement": "Patients with at least 1 TEAE", "setting": "[2]; Safety Population", "result": "14 (82) n (%)"},
      {"measurement": "Patients with at least 1 TEAE leading to dose reduction", "setting": "[2]; Safety Population", "result": "0 n (%)"},
      {"measurement": "Patients with at least 1 severe TEAE", "setting": "[2]; Safety Population", "result": "2 (12) n (%)"},
      {"measurement": "incidence of CNS-related events", "setting": "[2]; result in words", "result": "low and few CNS-related AEs"},
      {"measurement": "tolerability", "setting": "[2]; result in words", "result": "well tolerated"},
      {"measurement": "patients who required rescue medicine", "setting": "[3]; Day 5", "result": 12, "unit": "%"},
      {"measurement": "Rescue antiemetics used (patients)", "setting": "[3]; whole study", "result": 24, "unit": "%"},
      {"measurement": "Duration of nausea: 3-6 h", "setting": "[4]; Day 2", "result": "0 n (%)"},
      {"measurement": "Duration of nausea: 6-8 h", "setting": "[4]; Day 2", "result": "1 (8) n (%)"},
      {"measurement": "Duration of nausea: 8-10 h", "setting": "[4]; Day 2", "result": "0 n (%)"},
      {"measurement": "Duration of nausea: <3 h", "setting": "[4]; Day 2", "result": "1 (8) n (%)"},
      {"measurement": "Duration of nausea: >10 h", "setting": "[4]; Day 2", "result": "2 (15) n (%)"},
      {"measurement": "Duration of nausea: No nausea reported", "setting": "[4]; Day 2", "result": "9 (69) n (%)"},
      {"measurement": "Observed Duration of Vomiting/Retching (mean ± SD)", "setting": "[4]; Day 2", "result": "0.00 ± 0.00", "unit": "h"},
      {"measurement": "Duration of nausea: 3-6 h", "setting": "[4]; Day 3", "result": "0 n (%)"},
      {"measurement": "Duration of nausea: 6-8 h", "setting": "[4]; Day 3", "result": "2 (17) n (%)"},
      {"measurement": "Duration of nausea: 8-10 h", "setting": "[4]; Day 3", "result": "0 n (%)"},
      {"measurement": "Duration of nausea: <3 h", "setting": "[4]; Day 3", "result": "2 (17) n (%)"},
      {"measurement": "Duration of nausea: >10 h", "setting": "[4]; Day 3", "result": "1 (8) n (%)"},
      {"measurement": "Duration of nausea: No nausea reported", "setting": "[4]; Day 3", "result": "7 (58) n (%)"},
      {"measurement": "Observed Duration of Vomiting/Retching (mean ± SD)", "setting": "[4]; Day 3", "result": "0.41 ± 1.36", "unit": "h"},
      {"measurement": "Duration of nausea: 3-6 h", "setting": "[4]; Day 4", "result": "0 n (%)"},
      {"measurement": "Duration of nausea: 6-8 h", "setting": "[4]; Day 4", "result": "0 n (%)"},
      {"measurement": "Duration of nausea: 8-10 h", "setting": "[4]; Day 4", "result": "0 n (%)"},
      {"measurement": "Duration of nausea: <3 h", "setting": "[4]; Day 4", "result": "1 (11) n (%)"},
      {"measurement": "Duration of nausea: >10 h", "setting": "[4]; Day 4", "result": "0 n (%)"},
      {"measurement": "Duration of nausea: No nausea reported", "setting": "[4]; Day 4", "result": "8 (89) n (%)"},
      {"measurement": "Observed Duration of Vomiting/Retching (mean ± SD)", "setting": "[4]; Day 4", "result": "0.00 ± 0.01", "unit": "h"},
      {"measurement": "Duration of nausea: 3-6 h", "setting": "[4]; Day 5", "result": "0 n (%)"},
      {"measurement": "Duration of nausea: 6-8 h", "setting": "[4]; Day 5", "result": "0 n (%)"},
      {"measurement": "Duration of nausea: 8-10 h", "setting": "[4]; Day 5", "result": "0 n (%)"},
      {"measurement": "Duration of nausea: <3 h", "setting": "[4]; Day 5", "result": "1 (13) n (%)"},
      {"measurement": "Duration of nausea: >10 h", "setting": "[4]; Day 5", "result": "0 n (%)"},
      {"measurement": "Duration of nausea: No nausea reported", "setting": "[4]; Day 5", "result": "7 (88) n (%)"},
      {"measurement": "Observed Duration of Vomiting/Retching (mean ± SD)", "setting": "[4]; Day 5", "result": "0.00 ± 0.00", "unit": "h"},
      {"measurement": "Absence of nausea", "setting": "[4]; Days 2-5", "result": "71^† %"},
      {"measurement": "Absence of nausea (frequency/n)", "setting": "[4]; Days 2-5", "result": "(10/14)"},
      {"measurement": "Mean vomiting/retching", "setting": "[4]; Days 2-5", "result": 0.2, "unit": "episodes/day"},
      {"measurement": "Total response (frequency/n)", "setting": "[4]; Days 2-5", "result": "(7/13)"},
      {"measurement": "Mean nausea intensity", "setting": "[4]; Days 2-5, 100-mm VAS", "result": "10.1^† mm"},
      {"measurement": "Absence of nausea", "setting": "[4]; Days 2-5, listed as dronabinol", "result": 71, "unit": "%"},
      {"measurement": "Total response", "setting": "[4]; Days 2-5 LOCF end point, TR = nausea <5 mm VAS, no vomiting/retching, no rescue", "result": 54, "unit": "%"},
      {"measurement": "Complete Response: No", "setting": "[4]; LOCF End Point (Days 2-5)", "result": "5 (38) n (%)"},
      {"measurement": "Complete Response: Yes", "setting": "[4]; LOCF End Point (Days 2-5)", "result": "8 (62) n (%)"},
      {"measurement": "antiemetic effect for delayed CINV", "setting": "[4]; result in words", "result": "comparable with ondansetron"}
    ]}
  ]
}
